A short description of the series: Solid form stability on storage, analyzed using PXRD. The class given is physicochemical. As for the experimental part:
The crystalline Form S2 of Siponimod prepared by the process of the present application is kept at about 25° C. After three months the solid was analyzed using PXRD. […] The crystalline Form S2 of Siponimod prepared by the process of the present application is kept at about 70° C. After three months the solid was analyzed using PXRD.
In another aspect, the present application provides stable amorphous Siponimod. […] The amorphous Siponimod prepared by the process of the present application is kept in a […] at about 5° C. After one year the solid was analyzed using PXRD.
The amorphous form of siponimod prepared in example-3 was kept in an amber colored glass bottle at 2-8° C. for one year and the solid was analyzed using PXRD.

Here are results for two molecules from patent US20220144768A1, “SOLID STATE FORMS OF SIPONIMOD” (DR. REDDY'S LABORATORIES LIMITED, priority 2019, published 2022).

`CCc1cc(/C(C)=N/OCc2ccc(C3CCCCC3)c(C(F)(F)F)c2)ccc1CN1CC(C(=O)O)C1` [crystalline Form S2 of Siponimod]: the “stability of the crystalline form (time stable)” value (crystalline Form S2, storage, PXRD) was “stable for at least three months”. For the same molecule, the “solid form after storage (PXRD)” value by setting is: (kept at about 25° C., after three months, PXRD matches FIG. 3) “remains in crystalline Form S2”; (kept at about 70° C., after three months, PXRD matches FIG. 3) “remains in crystalline Form S2”.

As for `CCc1cc(/C(C)=N/OCc2ccc(C3CCCCC3)c(C(F)(F)F)c2)ccc1CN1CC(C(=O)O)C1` [amorphous Siponimod], for the setting “amorphous form, storage, PXRD”, the “stability of the amorphous form (time stable)” value is listed as “stable for at least one year”. Where the note is “kept in a freezer at about 5° C., after one year, PXRD shown in FIG. 7”, the “solid form after storage (PXRD)” value is “remains in amorphous form”.
